Data as given in patent US20080249136A1, “Antimicrobial Composition and Method” (priority 2005, published 2008).

Key:
[1] = system: Staphylococcus aureus ATCC #6538; test: Efficacy (log kill) against Staphylococcus aureus, 96-well assay block; format: cell-based
Procedure: (§1) The cationic polymers are pH adjusted in the range of 6-7.5. It should be noted that the Ecopol polymers require an acidic environment for complete dissolution. Once the polymer is dissolved, NaOH can be used to bring the pH to the desired range.
(§2) The efficacy of the antimicrobial combinations against Staphylococcus aureus ATCC #6538 and Pseudomonas aeruginosa ATCC #10145 is measured. Testing is done in 96-well 1.5 ml polypropylene assay blocks using 96-well polypropylene sealing mats for covering the samples during incubation. The individual wells in the 96-well assay block are identified as follows: 12 columns numbered 1-12 across the top row of wells on the block, and 8 rows lettered A-H on the first column of the block. Columns 1 and 2 are reserved to test the activity of the biocide in buffer (pH 7.2) in the absence of the cationic polymer. Columns 11 and 12 are always reserved as control, to verify growth of the microorganism in the absence of the biocide. The preparation of the assay blocks involves the following steps in chronological order:
(§3) 1. Preparation of the biocide solution in an appropriate solvent at a concentration equal to 10 times the final concentration desired in row A; 2. Addition of predetermined amount of the stock biocide solution to each well in row A; 3. Addition of a predetermined amount of the solvent to rows B-H and wells 11A and 12A; 4. Serial dilution of the biocide, by transferring a predetermined amount of the solution from row A to row B, mixing, and repeating the transfer down all the rows. After the mixing step in row H, the transferring amount is taken out and disposed of; 5. Inoculation of the buffer and polymer solutions with the test organism. For bacteria, a 24-hour culture is used. Following the incubation period, the organism concentration in the medium is determined by reading the OD at 620 nm. This culture is used to inoculate the buffer and the polymer solution to a bacterial concentration of 1E6 cfu/ml. Fungal challenges are performed with fungal spores isolated from inoculated SDA slants. The spores are collected by swiping the slant with a sterile cotton swab and re-suspended in tryptic soy broth. Tween 80 is added to aid in spore separation and the suspension was homogenized. The spore concentration is obtained by use of a hemacytometer. This suspension is used to inoculate the buffer and the polymeric solutions to a spore concentration of 3-5E6 cfu/ml; 6. Addition of the inoculated buffer or polymer solution to each well. 7. Thorough mixing of the blends in each well; 8. Sampling for the time 0, 24 h, 48 h and 7 days reading is accomplished using a 96-well 300 μl polystyrene microplate. Tryptic Soy broth (TSB) is used for the bacterial studies and Malt (YM) broth buffered at pH 7.4 for fungal studies; 9. The microplates are incubated at 35° C. for bacteria and 30° C. for fungus, until the control samples show adequate growth; and 10. Data is recorded as the log reduction in microorganism concentration relative to the inoculum.

[2] = system: Pseudomonas aeruginosa ATCC #10145; test: Efficacy (log kill) against Pseudomonas aeruginosa, 96-well assay block; format: cell-based
Procedure: as §1, §2, §3

ClC=CC[N+]12CN3CN(CN(C3)C1)C2.[Cl-] [CTAC, 1-(3-chloroallyl)-3,5,7-triaza-1-azoniaadamantane chloride]
Log kill 24 h ([1]; Active Conc. 52.7 ppm): 0 log
Log kill 48 h ([1]; Active Conc. 52.7 ppm): 0 log
Log kill 7 days ([1]; Active Conc. 52.7 ppm): 1 log
Log kill t0 ([1]; Active Conc. 52.7 ppm): 0 log
Log kill 24 h ([1]; Active Conc. 79 ppm): 0 log
Log kill 48 h ([1]; Active Conc. 79 ppm): 0 log
Log kill 7 days ([1]; Active Conc. 79 ppm): 1 log
Log kill t0 ([1]; Active Conc. 79 ppm): 0 log
Log kill 24 h ([1]; Active Conc. 177.8 ppm): 0 log
Log kill 48 h ([1]; Active Conc. 177.8 ppm): 0 log
Log kill 7 days ([1]; Active Conc. 177.8 ppm): 4 log
Log kill t0 ([1]; Active Conc. 177.8 ppm): 0 log
Log kill 24 h ([1]; Active Conc. 400 ppm): 0 log
Log kill 48 h ([1]; Active Conc. 400 ppm): 0 log
Log kill 7 days ([1]; Active Conc. 400 ppm): 6 log
Log kill t0 ([1]; Active Conc. 400 ppm): 0 log
Log kill 24 h ([2]; Active Conc. 46.8 ppm): 0 log
Log kill 48 h ([2]; Active Conc. 46.8 ppm): 0 log
Log kill 7 days ([2]; Active Conc. 46.8 ppm): 0 log
Log kill t0 ([2]; Active Conc. 46.8 ppm): 0 log
Log kill 24 h ([2]; Active Conc. 158 ppm): 0 log
Log kill 48 h ([2]; Active Conc. 158 ppm): 0.5 log
Log kill 7 days ([2]; Active Conc. 158 ppm): 5 log
Log kill t0 ([2]; Active Conc. 158 ppm): 0 log
Log kill 24 h ([2]; Active Conc. 355.6 ppm): 1 log
Log kill 48 h ([2]; Active Conc. 355.6 ppm): 4 log
Log kill 7 days ([2]; Active Conc. 355.6 ppm): 6 log
Log kill t0 ([2]; Active Conc. 355.6 ppm): 0 log
Log kill 24 h ([2]; Active Conc. 800 ppm): 2.5 log
Log kill 48 h ([2]; Active Conc. 800 ppm): 5 log
Log kill 7 days ([2]; Active Conc. 800 ppm): 6 log
Log kill t0 ([2]; Active Conc. 800 ppm): 0 log

Cc1ccc(S(=O)(=O)C(I)I)cc1 [DIMTS, diiodomethyl-para-tolylsulfone]
Log kill 24 h ([1]; Active Conc. 189.7 ppm): 0 log
Log kill 48 h ([1]; Active Conc. 189.7 ppm): 0 log
Log kill 7 days ([1]; Active Conc. 189.7 ppm): 0 log
Log kill t0 ([1]; Active Conc. 189.7 ppm): 0 log
Log kill 24 h ([1]; Active Conc. 265.6 ppm): 0 log
Log kill 48 h ([1]; Active Conc. 265.6 ppm): 0 log
Log kill 7 days ([1]; Active Conc. 265.6 ppm): 0 log
Log kill t0 ([1]; Active Conc. 265.6 ppm): 0 log
Log kill 24 h ([1]; Active Conc. 1428.6 ppm): 0 log
Log kill 48 h ([1]; Active Conc. 1428.6 ppm): 0 log
Log kill 7 days ([1]; Active Conc. 1428.6 ppm): 2 log
Log kill t0 ([1]; Active Conc. 1428.6 ppm): 0.5 log
Log kill 24 h ([1]; Active Conc. 2000 ppm): 1 log
Log kill 48 h ([1]; Active Conc. 2000 ppm): 1 log
Log kill 7 days ([1]; Active Conc. 2000 ppm): 6 log
Log kill t0 ([1]; Active Conc. 2000 ppm): 1 log
Log kill 24 h ([2]; Active Conc. 414 ppm): 0 log
Log kill 48 h ([2]; Active Conc. 414 ppm): 1 log
Log kill 7 days ([2]; Active Conc. 414 ppm): 2 log
Log kill t0 ([2]; Active Conc. 414 ppm): 0 log
Log kill 24 h ([2]; Active Conc. 2000 ppm): 1 log
Log kill 48 h ([2]; Active Conc. 2000 ppm): 1 log
Log kill 7 days ([2]; Active Conc. 2000 ppm): 2 log
Log kill t0 ([2]; Active Conc. 2000 ppm): 0 log

Oc1ccccc1-c1ccccc1 [OPP, ortho-phenylphenol]
Log kill 24 h ([1]; Active Conc. 124 ppm): 2 log
Log kill 48 h ([1]; Active Conc. 124 ppm): 2 log
Log kill 7 days ([1]; Active Conc. 124 ppm): 6 log
Log kill t0 ([1]; Active Conc. 124 ppm): 0 log
Log kill 24 h ([1]; Active Conc. 182.2 ppm): 6 log
Log kill 48 h ([1]; Active Conc. 182.2 ppm): 6 log
Log kill 7 days ([1]; Active Conc. 182.2 ppm): 6 log
Log kill t0 ([1]; Active Conc. 182.2 ppm): 1 log
Log kill 24 h ([1]; Active Conc. 278.9 ppm): 3.5 log
Log kill 48 h ([1]; Active Conc. 278.9 ppm): 3 log
Log kill 7 days ([1]; Active Conc. 278.9 ppm): 4 log
Log kill t0 ([1]; Active Conc. 278.9 ppm): 0.5 log
Log kill 24 h ([1]; Active Conc. 418.4 ppm): 6 log
Log kill 48 h ([1]; Active Conc. 418.4 ppm): 6 log
Log kill 7 days ([1]; Active Conc. 418.4 ppm): 4 log
Log kill t0 ([1]; Active Conc. 418.4 ppm): 6 log
Log kill 24 h ([2]; Active Conc. 130.2 ppm): 0 log
Log kill 48 h ([2]; Active Conc. 130.2 ppm): 1 log
Log kill 7 days ([2]; Active Conc. 130.2 ppm): 1.5 log
Log kill t0 ([2]; Active Conc. 130.2 ppm): 0 log
Log kill 24 h ([2]; Active Conc. 182.2 ppm): 1.5 log
Log kill 48 h ([2]; Active Conc. 182.2 ppm): 2.5 log
Log kill 7 days ([2]; Active Conc. 182.2 ppm): 2.5 log
Log kill t0 ([2]; Active Conc. 182.2 ppm): 1.5 log
Log kill 24 h ([2]; Active Conc. 222.2 ppm): 4.5 log
Log kill 48 h ([2]; Active Conc. 222.2 ppm): 3.5 log
Log kill 7 days ([2]; Active Conc. 222.2 ppm): 4 log
Log kill t0 ([2]; Active Conc. 222.2 ppm): 4 log

Oc1cc(Cl)ccc1Oc1ccc(Cl)cc1Cl [Triclosan, 2,4,4′-trichloro-2-hydroxyphenyl ether]
contact time to achieve 3 log reduction in P. aeruginosa ([2]; 800 ppm of Triclosan): greater than 48 hours
Log kill 24 h ([2]; Triclosan Conc. 105.3 ppm): 1 log
Log kill 48 h ([2]; Triclosan Conc. 105.3 ppm): 1 log
Log kill 7 days ([2]; Triclosan Conc. 105.3 ppm): 2 log
Log kill t0 ([2]; Triclosan Conc. 105.3 ppm): 0 log
Log kill 24 h ([2]; Triclosan Conc. 355.6 ppm): 1 log
Log kill 48 h ([2]; Triclosan Conc. 355.6 ppm): 2 log
Log kill 7 days ([2]; Triclosan Conc. 355.6 ppm): 2 log
Log kill t0 ([2]; Triclosan Conc. 355.6 ppm): 1 log
Log kill 24 h ([2]; Triclosan Conc. 800 ppm): 1 log
Log kill 48 h ([2]; Triclosan Conc. 800 ppm): 2.5 log
Log kill 7 days ([2]; Triclosan Conc. 800 ppm): 4 log
Log kill t0 ([2]; Triclosan Conc. 800 ppm): 1 log

zinc pyrithione [ZPT]
Log kill 24 h ([1]; Active Conc. 5.9 ppm): 0 log
Log kill 48 h ([1]; Active Conc. 5.9 ppm): 1 log
Log kill 7 days ([1]; Active Conc. 5.9 ppm): 1 log
Log kill t0 ([1]; Active Conc. 5.9 ppm): 0 log
Log kill 24 h ([1]; Active Conc. 29.6 ppm): 0 log
Log kill 48 h ([1]; Active Conc. 29.6 ppm): 1 log
Log kill 7 days ([1]; Active Conc. 29.6 ppm): 1 log
Log kill t0 ([1]; Active Conc. 29.6 ppm): 0 log
Log kill 24 h ([1]; Active Conc. 100 ppm): 0.5 log
Log kill 48 h ([1]; Active Conc. 100 ppm): 1.5 log
Log kill 7 days ([1]; Active Conc. 100 ppm): 2 log
Log kill t0 ([1]; Active Conc. 100 ppm): 1 log
control of P. aeruginosa before 48 h ([2]; 800 ppm active, before 48 h): no control
Log kill 24 h ([2]; Active Conc. 46.8 ppm): 0 log
Log kill 48 h ([2]; Active Conc. 46.8 ppm): 0 log
Log kill 7 days ([2]; Active Conc. 46.8 ppm): 2 log
Log kill t0 ([2]; Active Conc. 46.8 ppm): 0 log
Log kill 24 h ([2]; Active Conc. 533.3 ppm): 0 log
Log kill 48 h ([2]; Active Conc. 533.3 ppm): 1.5 log
Log kill 7 days ([2]; Active Conc. 533.3 ppm): 3 log
Log kill t0 ([2]; Active Conc. 533.3 ppm): 0 log
Log kill 24 h ([2]; Active Conc. 800 ppm): 0 log
Log kill 48 h ([2]; Active Conc. 800 ppm): 2 log
Log kill t0 ([2]; Active Conc. 800 ppm): 0 log
